In US20150004110A1, “NOVEL ANTI-AGING AND DEPIGMENTING COSMETIC COMPOSITIONS” (DIVERCHIM, priority 2011, published 2015):
Like-named read-outs stand apart in the source and are kept apart here.

What was measured:
[1] = system: B16 melanocytes stimulated with NDP-MSH; assay: Anti-melanogenesis activity: melanin synthesis in B16 melanocytes stimulated with NDP-MSH; assay type: cell-based
Experimental: The depigmenting effect was evaluated on a line of type B16 melanocytes stimulated with NDP-MSH, (natural hormone stimulating melanogenesis; Melanocyte Stimulating Hormone, [Nle, DPhe]-α-MSH). Melanin synthesis was evaluated.
The anti-melanogenesis activity of the compounds in solution in DMSO was evaluated by measuring melanin synthesis in a model of B16 melanocytes stimulated with a stable derivative of α-MSH (natural melanogenesis stimulating hormone): NDP-MSH.
(§1) The melanocytes were seeded in a 96-well plate and were cultured for 24 h (37° C., 5% CO2, DMEM 1 g/L glucose without phenol red supplemented with glucose at 3 g/L, L-glutamine at 2 mM, penicillin at 50 U/mL, streptomycin at 50 μg/mL, foetal calf serum (FCS) at 10%). After incubation, the culture medium was then replaced with culture medium supplemented or not supplemented (unstimulated control) with a stable derivative of α-MSH and containing or not containing (controls) the test compounds or the reference (kojic acid at 25, 100, 400, 800 μg/mL). Each experiment was carried out with n=3, apart from the controls carried out with n=6, then the cells were incubated for 72 h. Wells without cells received in parallel the same quantities of medium supplemented or not supplemented with NDP-MSH and containing or not containing the test compounds or the reference in order to quantify the background noise associated with the presence of the compounds.
After incubation for 72 hours, the total melanin (intra- and extracellular) was quantified by measuring the absorption at 405 nm of each sample (direct reading of the culture plates) against a standard range of melanin (melanin concentrations tested from 0.78 to 100 μg/mL). The background noise, measured in the wells without cells, was subtracted from the measured values so as only to take into account the effect connected with melanin production, without taking into account the possible interference connected with the presence of the compounds. The results were expressed as percentage of melanin relative to the control as well as percentage inhibition.
The operating conditions are the same as in Example 12.

B16 melanocytes = assay: Cell viability, MTT reduction test; assay type: cell-based
Experimental: as §1, with “compounds. At the end of the treatment, the cells were incubated in the presence of MTT (tetrazolium salt), the transformation of which to blue crystals of formazan is proportional to the activity of succinate dehydrogenase (mitochondrial enzyme). After dissociation of the cells, the formazan was dissolved in DMSO medium and the optical density (OD), representative of the number of living cells and of their metabolic reactivity, was measured with a microplate reader at 540 nm (VERSAmax, Molecular Devices). The operating conditions are the same as in Example 12.” for “compounds.”

[2] = Melanocyte, NDP-MSH stimulated B16, 72 h, Table 2, read-out: Standardized data Inhibition (%) (melanin)
[3] = Melanocyte, 30 μM, NDP-MSH stimulated B16, 72 h, Table 2, read-out: Standardized data Inhibition (%) (melanin)
[4] = Melanocyte, 30 μM, comparison with 2 reference molecules, Table 3, read-out: Standardized data Inhibition (%) (melanin)
[5] = Melanocyte, 100 μM, comparison with 2 reference molecules, Table 3, read-out: Standardized data Inhibition (%) (melanin)
[6] = Melanocyte, 100 μM, NDP-MSH stimulated B16, 72 h, Table 2, read-out: Standardized data Inhibition (%) (melanin)
[7] = 30 μM, NDP-MSH stimulated B16, 72 h, Table 2
[8] = 100 μM, NDP-MSH stimulated B16, 72 h, Table 2

Row | SMILES | inhibition at 10 µM [1, 2] | inhibition at 30 µM [1, 3] | Viability (MTT) % stimulated control (B16 melanocytes; 10 μM, B16, 72 h, Table 2) | Viability (MTT) % stimulated control (B16 melanocytes; 30 μM, B16, 72 h, Table 2) | Viability (MTT) % stimulated control (B16 melanocytes; 100 μM, B16, 72 h, Table 2) | further results
1 | CCC(C)(C)c1ccc(OCCc2ccccc2O)cc1 [Compound 43] | 119% | 120% | 90% | 9% | – | inhibition at 3 µM [1, 2]: 88%; Viability (MTT) % stimulated control (B16 melanocytes; 3 μM, B16, 72 h, Table 2): 116%
2 | Oc1ccccc1CCOc1ccc(OCc2ccccc2)cc1 [Compound 20] | 108% | 115% | 84% | 59% | – | inhibition at 3 µM [1, 2]: 83%; Viability (MTT) % stimulated control (B16 melanocytes; 3 μM, B16, 72 h, Table 2): 106%
3 | CCCCc1ccc(O)cc1O [Ref 1, 4-(2,4-dihydroxyphenyl)butane, reference compound] | – | – | – | – | – | inhibition at 30 µM [1, 4]: 82%; inhibition at 100 µM [1, 5]: 100%
4 | CC(=O)O[C@@H]1[C@@H](OC(C)=O)[C@@H](OC(C)=O)C(Oc2ccccc2CCOc2ccc(F)cc2)O[C@H]1C (some centres unmarked) [Compound 127] | – | 29% | – | 90% | – | –
5 | COc1ccc(CCCc2ccc(O)cc2O)c(OC)c1C [Ref 2, 1-(2,4-dihydroxyphenyl)-3-(2,4-dimethoxy-3-methylphenyl)propane, reference compound] | – | – | – | – | – | inhibition at 30 µM [1, 4]: 45%; inhibition at 100 µM [1, 5]: 113%; Viability (MTT) % stimulated control (B16 melanocytes; 30 μM, comparison with 2 reference molecules, Table 3): 102%; Viability (MTT) % stimulated control (B16 melanocytes; 100 μM, comparison with 2 reference molecules, Table 3): 76%
6 | CC(=O)Nc1ccc(OCCc2ccccc2OC(C)=O)cc1 [Compound 22] | – | -3% | – | 97% | 86% | inhibition at 100 µM [1, 6]: 61%
7 | Fc1ccc(OCCc2ccccc2Br)cc1 [Compound 8] | – | – | – | 94% | 93% | Standardized data Inhibition (%) (melanin) [1, 7]: −27%; Standardized data Inhibition (%) (melanin) [1, 8]: 50%
8 | CC(C)c1ccc(OCC(=O)c2ccccc2O)cc1 [Compound 40] | 5% | 58% | 102% | 90% | – | –
9 | Oc1ccccc1C(O)COc1ccc(F)cc1 (centres unmarked) [Compound 24] | – | -12% | – | 76% | 78% | inhibition at 100 µM [1, 6]: 84%
10 | CCc1ccc(OCCc2ccccc2O)cc1 [Compound 35] | 92% | 112% | 97% | 88% | – | inhibition at 3 µM [1, 2]: 54%; Viability (MTT) % stimulated control (B16 melanocytes; 3 μM, B16, 72 h, Table 2): 105%
11 | CCC(C)(C)c1ccc(OCC(=O)c2ccccc2O)cc1 [Compound 44] | 24% | 117% | 89% | 80% | – | –
12 | Oc1ccccc1CCOc1ccccc1 [Compound 5] | – | – | – | 103% | 67% | Standardized data Inhibition (%) (melanin) [1, 7]: 49%; Standardized data Inhibition (%) (melanin) [1, 8]: 111%
13 | COc1ccccc1OCC(O)c1ccccc1O (centres unmarked) [Compound 125] | – | 13% | – | 90% | – | –
14 | O=[N+]([O-])c1ccc(OCCc2ccccc2O)cc1 [Compound 19] | – | 82% | – | 91% | 0% | inhibition at 100 µM [1, 6]: 111%
15 | Cc1cccc(CCOc2ccc(F)cc2)c1 [Compound 11] | – | -2% | – | 83% | 109% | inhibition at 100 µM [1, 6]: 44%
16 | CC(C)(C)c1ccc(OCCc2ccccc2O)cc1 [Compound 47] | 111% | 116% | 89% | 18% | – | inhibition at 3 µM [1, 2]: 75%; Viability (MTT) % stimulated control (B16 melanocytes; 3 μM, B16, 72 h, Table 2): 116%
17 | Oc1ccccc1CCOc1ccc(Cl)cc1 [Compound 31] | 70% | 109% | 104% | 88% | – | inhibition at 3 µM [1, 2]: 20%; Viability (MTT) % stimulated control (B16 melanocytes; 3 μM, B16, 72 h, Table 2): 91%
18 | Oc1ccccc1CCOc1ccc(Br)cc1 [Compound 3] | – | 110% | – | 96% | 0% | inhibition at 100 µM [1, 6]: 112%
19 | Oc1ccc(OCCc2ccccc2F)cc1 [Compound 27] | – | 95% | – | 77% | – | –
20 | CCCc1ccc(OCCc2ccccc2O)cc1 [Compound 130] | 110% | 116% | 89% | 81% | – | inhibition at 3 µM [1, 2]: 72%; Viability (MTT) % stimulated control (B16 melanocytes; 3 μM, B16, 72 h, Table 2): 98%
21 | Fc1ccc(CCOc2ccccc2OCc2ccccc2)cc1 [Compound 25] | – | 46% | – | 93% | – | –
22 | O=c1cc(CO)occ1O [Kojic acid, reference compound] | – | – | – | – | – | inhibition at 25 µg/mL ([1]; Melanocyte, 25 μg/mL, NDP-MSH stimulated B16, 72 h, Table 2, read-out: Standardized data Inhibition (%) (melanin)): 24%; inhibition at 100 µg/mL ([1]; Melanocyte, 100 μg/mL, NDP-MSH stimulated B16, 72 h, Table 2, read-out: Standardized data Inhibition (%) (melanin)): 78%; inhibition at 400 µg/mL ([1]; Melanocyte, 400 μg/mL, NDP-MSH stimulated B16, 72 h, Table 2, read-out: Standardized data Inhibition (%) (melanin)): 90%; Viability (MTT) % stimulated control (B16 melanocytes; 25 μg/mL, B16, 72 h, Table 2): 85%; Viability (MTT) % stimulated control (B16 melanocytes; 100 μg/mL, B16, 72 h, Table 2): 76%; Viability (MTT) % stimulated control (B16 melanocytes; 400 μg/mL, B16, 72 h, Table 2): 76%
23 | CC(=O)OC[C@H]1OC(Oc2ccccc2CCOc2ccc(F)cc2)[C@H](OC(C)=O)[C@@H](OC(C)=O)[C@@H]1OC(C)=O (some centres unmarked) [Compound 30] | – | 13% | – | 88% | – | –
24 | Cc1ccc(OCCc2ccccc2O)cc1 [Compound 2] | – | 100% | – | 108% | 34% | inhibition at 100 µM [1, 6]: 112%
